# Assay results from patent US4341770A, “Method of controlling ureaplasma infections” (Eli Lilly and Company, priority 1981, dated 1982).
# Columns and labels:
# [1] = Treatment of naturally occurring pneumonia in calves with OMT (Example 1); assay type: in vivo; conditions: for temperature averages of the calves: controls remained above 40° C. for 10 days; for calves that died: six of ten placebo-treated died
# Procedure: Example one illustrates the useful in vivo activity of OMT against Ureaplasma. In the example OMT (free base) was administered in an aqueous propylene glycol solution, and non-medicated water and feed were provided to the animals ad libitum.
# (§1) OMT was evaluated in calves for the treatment of naturally occurring pneumonia. Calves were purchased and transported to Lilly Research Laboratories, Greenfield, Indiana. The calves were weighed, bled, identified with eartags and allotted into pens soon after arrival. Rectal temperatures were taken and clinical observations were made daily.
# (§2) Calves were put on test at the first signs of respiratory disease which included ocular and nasal discharges, pyrexia and/or depression.
# (§3) Treated calves were injected intramuscularly with OMT in an aqueous propylene glycol vehicle. The treatment doses evaluated were 12.5 mg/kg and 25 mg/kg once a day for five days. Control calves were treated with placebo. There were 10 calves per group. Calves that died were examined at necropsy for lesions indicative of pneumomia. Surviving calves were killed seven days after the last treatment and examined for lesions at necropsy.
# gram-positive bacteria = conditions: taught by U.S. Pat. No. 3,459,853; cited from earlier work
# [2] = system: Ureaplasma isolate 763T-2; assay: conventional broth-dilution assay, MIC against Ureaplasma isolate 763T-2; assay type: cell-based
# From the text: (§4) For example, in the conventional broth-dilution assay, OMT had minimal inhibitory concentrations (MIC's) against four isolates of Ureaplasma as shown in Table I.
# Ureaplasma species [3] = assay: Treatment of pneumonia in calves (Example 1): isolation of Ureaplasma from lung tissue; assay type: in vivo
# Procedure: as §1, §2, §3
# [4] = system: Ureaplasma isolate 779T-3; assay: conventional broth-dilution assay, MIC against Ureaplasma isolate 779T-3; assay type: cell-based
# From the text: as §4
# Pasteurella species = assay: Treatment of pneumonia in calves (Example 1): control of Pasteurella; assay type: in vivo
# Procedure: as §1, §2, §3
# [5] = Prevention of naturally occurring pneumonia in calves with OMT (Example 2); assay type: in vivo; conditions: for cumulative mortality: 19 calves per group
# Procedure: OMT was evaluated in calves for the prevention and control of naturally occurring pneumonia. Calves were purchased and transported to Lilly Research Laboratories, Greenfield, Ind. Soon after arrival the calves were weighed, bled, identified with eartags and allotted into pens. There were 19 calves in the OMT-treated group and 19 calves in the nontreated control group.
# OMT was prepared as an injectable in an aqueous propylene glycol vehicle. The treated calves were each injected subcutaneously with 35 mg/lb (77 mg/kg) of OMT within a day after arrival. At this dose and route of administration, the drug was expected, based on blood level studies, to persist for seven days in the treated calves. The calves were each retreated with the same dose seven days later. Rectal temperatures were taken and clinical observations were made daily. Calves that died were examined at necropsy for lesions indicative of pneumonia.
# [6] = system: Ureaplasma isolate 773T-2; assay: conventional broth-dilution assay, MIC against Ureaplasma isolate 773T-2; assay type: cell-based
# From the text: as §4
# [7] = system: Ureaplasma isolate 765T-3; assay: conventional broth-dilution assay, MIC against Ureaplasma isolate 765T-3; assay type: cell-based
# From the text: as §4
# Ureaplasma species [8] = conditions: background statement; cited from earlier work
# [9] = 12.5 mg/kg intramuscular once a day for five days
# [10] = 25 mg/kg intramuscular once a day for five days
# [11] = 77 mg/kg subcutaneous, repeated after seven days, 14-day observation
compound,measurement,setting,value
"CCC1OC(=O)CC(O)C(C)C(OC2OC(C)C(O)C(N(C)C)C2O)C(CC=O)CC(C)C(=O)C=CC(C)=CC1CO (stereo not drawn) [OMT, 5-O-mycaminosyl tylonolide]",Scours,[1]; [9],reduced
same,ocular discharge,[1]; [9],reduced
same,temperature averages of the calves,[1]; [9],lowered to normal by the second day of treatment
same,calves that died,[1]; [9],two of ten
same,Scours,[1]; [10],reduced
same,ocular discharge,[1]; [10],reduced
same,temperature averages of the calves,[1]; [10],lowered to normal by the second day of treatment
same,calves that died,[1]; [10],two of ten
same,inhibition of gram-positive bacteria,gram-positive bacteria,inhibited gram-positive bacteria
same,MIC,[2],0.78 µg/mL
same,Ureaplasma species isolated from lung tissue,"Ureaplasma species [3]; 12.5 mg OMT/kg intramuscular once a day for five days, also isolated with placebo",isolated from lung tissue
same,elimination of the Ureaplasma species from the animals,Ureaplasma species [3]; [10],eliminated the Ureaplasma species
same,Ureaplasma species isolated from calves,"Ureaplasma species [3]; 25 mg/kg intramuscular once a day for five days, isolated from lung tissue of placebo calves",not isolated
same,MIC,[4],1.56 µg/mL
same,control of Pasteurella species associated with this pneumonia,Pasteurella species; [9],effectively controlled
same,control of Pasteurella species associated with this pneumonia,Pasteurella species; [10],effectively controlled
same,preventing death of calves due to a severe pneumonia,"[5]; 77 mg/kg subcutaneous, repeated after seven days",very effective in preventing death of calves
same,Scours,[5]; [11],less severe
same,nasal and ocular discharges,[5]; [11],less severe
same,average temperatures,"[5]; 77 mg/kg subcutaneous, repeated after seven days, 14-day observation, vs non-medicated controls",lower
same,alertness and condition of calves,"[5]; 77 mg/kg subcutaneous, repeated after seven days, vs controls",more alert and in better condition than the controls
same,cumulative mortality,"[5]; day 1, control 0",0
same,cumulative mortality,"[5]; day 2, control 0",0
same,cumulative mortality,"[5]; day 3, control 0",0
same,cumulative mortality,"[5]; day 4, control 1",0
same,cumulative mortality,"[5]; day 5, control 3",0
same,cumulative mortality,"[5]; day 6, control 5",0
same,cumulative mortality,"[5]; day 7, control 5",0
same,cumulative mortality,"[5]; day 8, control 5",0
same,cumulative mortality,"[5]; day 9, control 9",0
same,cumulative mortality,"[5]; day 10, control 11",0
same,cumulative mortality,"[5]; day 11, control 13",0
same,cumulative mortality,"[5]; day 12, control 14",0
same,cumulative mortality,"[5]; day 13, control 14",2
same,cumulative mortality,"[5]; day 14, control 15",3
same,calves that died with extensive pathologic lesions indicative of severe pneumonia,"[5]; necropsy, 14 of the 15 control calves",3 calves
same,MIC,[6],1.56 µg/mL
same,MIC,[7],1.56 µg/mL
CCC[C@@H]1C[C@@H](C(=O)N[C@@H]([C@H]2O[C@H](SC)[C@H](O)[C@@H](O)[C@H]2O)[C@@H](C)O)N(C)C1 [lincomycin],resistance of Ureaplasma species,Ureaplasma species [8],resistant
